This test concerns the target T1, GRK2 (Homo sapiens, UniProt P25098).
T1 sequence (P25098 1-689): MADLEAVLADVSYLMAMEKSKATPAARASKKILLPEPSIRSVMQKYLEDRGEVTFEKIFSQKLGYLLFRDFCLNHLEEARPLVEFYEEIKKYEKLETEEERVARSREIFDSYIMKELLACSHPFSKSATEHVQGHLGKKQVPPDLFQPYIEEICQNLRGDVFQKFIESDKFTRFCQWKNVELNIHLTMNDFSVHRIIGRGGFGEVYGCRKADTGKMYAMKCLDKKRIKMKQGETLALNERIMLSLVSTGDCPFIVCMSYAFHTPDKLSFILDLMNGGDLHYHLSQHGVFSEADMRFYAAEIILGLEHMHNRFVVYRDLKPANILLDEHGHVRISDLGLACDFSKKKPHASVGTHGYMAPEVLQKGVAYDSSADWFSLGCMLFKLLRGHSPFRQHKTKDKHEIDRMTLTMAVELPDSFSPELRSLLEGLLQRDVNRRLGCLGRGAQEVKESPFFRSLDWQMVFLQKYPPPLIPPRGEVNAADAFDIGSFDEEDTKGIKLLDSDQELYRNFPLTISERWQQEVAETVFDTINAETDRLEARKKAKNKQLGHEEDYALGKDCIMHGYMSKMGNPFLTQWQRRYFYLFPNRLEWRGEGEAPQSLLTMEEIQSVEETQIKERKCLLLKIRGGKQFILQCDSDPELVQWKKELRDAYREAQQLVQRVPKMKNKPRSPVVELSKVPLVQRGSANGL
Description: hGRK2 LANCE Ultra In Vitro Assay. In kind it is biochemical. In a few lines: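 TR-FRET kinase assay with 10 nM GRK2 preincubated 30 min with compound, then 200 nM ULight-peptide and 30 or 600 μM ATP in HEPES pH 7.5, 10 mM MgCl2, 1% DMSO; 120 or 60 min at ambient temperature respectively.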
On the technique in general: Time-resolved FRET reads energy transfer from a long-lived donor to a nearby acceptor.

The mark [1] stands for this setting: Biological Example 1 GRK2 Lancer IC50 (μM), 10 nM GRK2, 30 or 600 μM ATP (not stated which), multiple measurements listed individually.

Where two headings read alike, the source gives them in different places. Where only a bound is given, the exact number is not on record here.

What is called IC50 is the concentration at which inhibition is half-maximal.

Consider `COc1cccc([C@@H](C)N2Cc3c(cc(-c4cn[nH]c4)cc3C3CCNC3)C2=O)c1` (stereo partly drawn) [Compound 144, 2-((R)-1-(3-methoxyphenyl)ethyl)-6-(1H-pyrazol-4-yl)-4-(pyrrolidin-3-yl)isoindolin-1-one], for which the IC50 (read-out: Biological Example 1 GRK2 Lancer IC50, 10 nM GRK2, 30 or 600 μM ATP (not stated which), multiple measurements listed individually) worked out at 0.007 µM. Regarding `COC(=O)NC1CCC2(C1)c1ccc(-c3cn[nH]c3)cc1C(=O)N2Cc1cccc(OC)c1` (centres unmarked) [Compound 109, methyl (2′-(3-methoxybenzyl)-3′-oxo-5′-(1H-pyrazol-4-yl)spiro[cyclopentane-1,1′-isoindolin]-3-yl)carbamate], 0.006 µM corresponded to half-maximal inhibition under setting [1] (IC50). In the case of `COc1cccc(C(CO)N2Cc3c(cc(-c4cn[nH]c4)cc3-c3ccc(O)cc3)C2=O)c1` (centres unmarked) [Compound 153, 2-(2-Hydroxy-1-(3-methoxyphenyl)ethyl)-4-(4-hydroxyphenyl)-6-(1H-pyrazol-4-yl)isoindolin-1-one], half-maximal inhibition under setting [1] (IC50) required 0.019 µM. Same read-out and setting: the value for `COc1cccc(C(c2nn[nH]n2)N2Cc3ccc(-c4cn[nH]c4)cc3C2=O)c1` (centres unmarked) [Compound 94, 2-((3-methoxyphenyl)(2H-tetrazol-5-yl)methyl)-6-(1H-pyrazol-4-yl)isoindolin-1-one] was 0.652 µM; that for `COc1cccc(C(CO)N2Cc3c(cc(-c4cn[nH]c4)cc3-c3ccncc3)C2=O)c1` (centres unmarked) [Compound 133, 2-(2-Hydroxy-1-(3-methoxyphenyl)ethyl)-6-(1H-pyrazol-4-yl)-4-(pyridin-4-yl)isoindolin-1-one] was 0.021 µM; that for `COc1cccc(CN2C(=O)c3cc(-c4cn[nH]c4)ccc3C2CC(=O)O)c1` (centres unmarked) [Compound 61, 2-(2-(3-Methoxybenzyl)-3-oxo-5-(1H-pyrazol-4-yl)isoindolin-1-yl)acetic acid] was 0.012 µM. As to `COc1cccc(C(COCCO)N2Cc3ccc(-c4cn[nH]c4)cc3C2=O)c1` (centres unmarked) [Compound 63, 2-(2-(2-Hydroxyethoxy)-1-(3-methoxyphenyl)ethyl)-6-(1H-pyrazol-4-yl)isoindolin-1-one], it took 0.008 µM to reach half-maximal inhibition under setting [1] (IC50). On the same count and under the same terms, the value for `COc1cccc([C@@H](C)N2Cc3c(cc(-c4cn[nH]c4)cc3-c3ccc(O)cc3)C2=O)c1` [Compound 129, (R)-4-(4-hydroxyphenyl)-2-(1-(3-methoxyphenyl)ethyl)-6-(1H-pyrazol-4-yl)isoindolin-1-one] was 0.011 µM; that for `CCOc1cccc([C@@H](C)N2Cc3ccc(-c4cn[nH]c4)cc3C2=O)c1` [Compound 29, 2-[(1R)-1-(3-ethoxyphenyl)ethyl]-6-(1H-pyrazol-4-yl)isoindolin-1-one] was 0.006 µM. Still for that read-out and setting: the result for `COc1cccc(CN2C(=O)c3cc(-c4cn[nH]c4)ccc3C23CCCCC3)c1` [Compound 81, 2′-(3-methoxybenzyl)-5′-(1H-pyrazol-4-yl)spiro[cyclohexane-1,1′-isoindolin]-3′-one] reads 0.011 µM; that for `O=C1c2cc(-c3cn[nH]c3)ccc2CN1Cc1cccc(OCc2nn[nH]n2)c1` [Compound 88, 2-(3-((2H-Tetrazol-5-yl)methoxy)benzyl)-6-(1H-pyrazol-4-yl)isoindolin-1-one], 0.029 µM; that for `COc1cccc(C(CO)N2Cc3ccc(-c4cn[nH]c4)cc3C2=O)c1` (racemic) [Compound 38, 2-(2-hydroxy-1-(3-methoxyphenyl)ethyl)-6-(1H-pyrazol-4-yl)isoindolin-1-one], 0.006 µM.

With `COc1cccc(CN2C(=O)c3cc(-c4cn[nH]c4)ccc3C23CCC(O)C3O)c1` (centres unmarked) [Compound 102, 2,3-dihydroxy-2′-(3-methoxybenzyl)-5′-(1H-pyrazol-4-yl)spiro[cyclopentane-1,1′-isoindolin]-3′-one], the IC50 under setting [1] is 0.006 µM. As for `CCOc1cccc([C@@H](CO)N2Cc3ccc(-c4cn[nH]c4)cc3C2=O)c1` [Compound 114], under setting [1], the IC50 was 0.006 µM. Consider `O=C1c2cc(-c3cn[nH]c3)ccc2CN1Cc1ccc(F)s1` [Compound 43, 2-((5-Fluorothiophen-2-yl)methyl)-6-(1H-pyrazol-4-yl)isoindolin-1-one], for which the IC50 under setting [1] was 0.088 µM. On the same count and under the same terms, the result for `COc1cccc([C@@H](C)N2Cc3c(cc(-c4cn[nH]c4)cc3N3CCN(C)CC3)C2=O)c1` [Compound 156, (R)-2-(1-(3-methoxyphenyl)ethyl)-4-(4-methylpiperazin-1-yl)-6-(1H-pyrazol-4-yl)isoindolin-1-one] reads 0.011 µM. Same read-out and setting: the value for `COCC(c1cccc(OC)c1)N1Cc2ccc(-c3cn[nH]c3)cc2C1=O` (centres unmarked) [Compound 59, 2-(2-methoxy-1-(3-methoxyphenyl)ethyl)-6-(1H-pyrazol-4-yl)isoindolin-1-one] was 0.009 µM; that for `COc1cccc([C@@H](C)N2C(=O)c3cc(-c4cn[nH]c4)ccc3C2CCO)c1` (stereo partly drawn) [Compound 49, 3-(2-hydroxyethyl)-2-((R)-1-(3-methoxyphenyl)ethyl)-6-(1H-pyrazol-4-yl)isoindolin-1-one] was less than 0.005 µM. Same read-out and setting: the result for `CCOc1cccc(CN2C(=O)c3cc(-c4c[nH]nn4)ccc3C2(C)C)c1` [Compound 39, 2-(3-Ethoxybenzyl)-3,3-dimethyl-6-(1H-1,2,3-triazol-4-yl)isoindolin-1-one] reads 0.196 µM. Under setting [1], `COc1cccc(CN2C(=O)c3cc(-c4cn[nH]c4)ccc3C2(CCO)CCO)c1` [Compound 41, 3,3-bis(2-hydroxyethyl)-2-(3-methoxybenzyl)-6-(1H-pyrazol-4-yl)isoindolin-1-one] returned an IC50 of 0.034 µM.

Molecule `COc1cccc(C(C(=O)c2ccccc2)N2Cc3ccc(-c4cn[nH]c4)cc3C2=O)c1` (centres unmarked) [Compound 92, 2-(1-(3-methoxyphenyl)-2-oxo-2-phenylethyl)-6-(1H-pyrazol-4-yl)isoindolin-1-one] yielded an IC50 under setting [1] of 5.01 µM. The same measure, in the same setting: the result for `CCOc1cccc([C@H](CO)N2Cc3ccc(-c4cn[nH]c4)cc3C2=O)c1` [Compound 112] reads 0.306 µM; that for `O=C1c2cc(-c3ccncn3)ccc2CN1Cc1cccc(Oc2ccccc2)c1` [Compound 106], 0.419 µM. `COc1cccc(C(Cc2nnn[nH]2)N2Cc3ccc(-c4cn[nH]c4)cc3C2=O)c1` (centres unmarked) [Compound 84] yielded an IC50 under setting [1] of 0.167 µM. Turning to `O=C(Oc1cccc(CN2Cc3ccc(-c4cn[nH]c4)cc3C2=O)c1)C1CC1` [Compound 137], under setting [1], it took 0.034 µM to reach half-maximal inhibition (IC50). Turning to `COc1cccc(CN2C(=O)c3cc(-c4cn[nH]c4)ccc3C23CCCC3C(=O)O)c1` (centres unmarked) [Compound 110, 2′-(3-methoxybenzyl)-3′-oxo-5′-(1H-pyrazol-4-yl)spiro[cyclopentane-1,1′-isoindoline]-2-carboxylic acid], it took 0.307 µM to reach half-maximal inhibition (IC50). With `COc1cccc(C(CO)N2Cc3c(cc(-c4cn[nH]c4)cc3-c3cccc(O)c3)C2=O)c1` (centres unmarked) [Compound 143, 2-(2-hydroxy-1-(3-methoxyphenyl)ethyl)-4-(3-hydroxyphenyl)-6-(1H-pyrazol-4-yl)isoindolin-1-one], under setting [1], the IC50 turned out to be 0.005 µM.

`CCOc1cccc([C@H](C(=O)OC)N2Cc3ccc(-c4cn[nH]c4)cc3C2=O)c1` [Compound 73]: the IC50 under setting [1] was found to be 1.39 µM.

With `O=C(NC1CC2CCC1C2)c1cccc(CN2Cc3ccc(-c4cn[nH]c4)cc3C2=O)c1` (centres unmarked) [Compound 174], under setting [1], half-maximal inhibition (IC50) required 0.003 µM. On the same count and under the same terms, the result for `COc1cccc(CN2C(=O)c3cc(-c4cn[nH]c4)ccc3C23CCC2OC(=O)NC23)c1` (centres unmarked) [Compound 151, 2′-(3-methoxybenzyl)-5′-(1H-pyrazol-4-yl)-3a,5,6,6a-tetrahydrospiro[cyclopenta[d]oxazole-4,1′-isoindoline]-2,3′(3H)-dione] reads 0.011 µM; that for `Cc1cnccc1CNC(=O)c1cccc(CN2C(=O)c3cc(-c4cn[nH]c4)ccc3C23CCCC3)c1` [Compound 134, N-((3-methylpyridin-4-yl)methyl)-3-((3′-oxo-5′-(1H-pyrazol-4-yl)spiro[cyclopentane-1,1′-isoindolin]-2′-yl)methyl)benzamide], 0.003 µM; that for `O=C(O)COc1cccc(CN2Cc3ccc(-c4ccnc5[nH]ccc45)cc3C2=O)c1` [Compound 57], 2.56 µM. In the case of `COc1ccc(OC)c(C(CO)N2Cc3ccc(-c4cn[nH]c4)cc3C2=O)c1` (centres unmarked) [Compound 52, 2-(1-(2,5-dimethoxyphenyl)-2-hydroxyethyl)-6-(1H-pyrazol-4-yl)isoindolin-1-one], under setting [1], the IC50 amounted to 0.742 µM.

The molecule `O=C1c2cc(-c3cn[nH]c3)ccc2CN1Cc1cccc(O)c1` [Compound 135] yielded an IC50 under setting [1] of 0.005 µM. Under setting [1], `COC(=O)COc1cccc(CN2Cc3ccc(-c4ccnc5[nH]ccc45)cc3C2=O)c1` [Compound 54] came in with an IC50 of 0.292 µM. The molecule `COc1cccc(C(C(=O)O)N2Cc3ccc(-c4cn[nH]c4)cc3C2=O)c1` (centres unmarked) [Compound 71] came in with an IC50 under setting [1] of 0.815 µM. The same measure, in the same setting: the value for `CNC(=O)c1cc(-c2ccc3c(c2)C(=O)N(Cc2cccc(OC)c2)C3)ccn1` [Compound 37, 4-(2-(3-methoxybenzyl)-3-oxoisoindolin-5-yl)-N-methylpicolinamide] was more than 20 µM; that for `COc1cccc(C(CO)N2Cc3ccc(-c4cccnc4)cc3C2=O)c1` (centres unmarked) [Compound 83, 2-(2-hydroxy-1-(3-methoxyphenyl)ethyl)-6-(pyridin-3-yl)isoindolin-1-one] was 0.024 µM.

For the origin of these results see patent US20220009906A1, “ISOINDOLIN-1-ONE DERIVATIVES USEFUL AS GRK2 INHIBITORS” (priority 2020, published 2022).
